In paper PMC6897945, “CytA, a reductase in the cytorhodin biosynthesis pathway, inactivates anthracycline drugs in Streptomyces” (Communications Biology, 2019):
Converted amounts (≈) assume the structure as drawn. Read-outs that look alike come from different tables or passages of the source.

How the values were obtained:
[1] = tested on: CytA; experiment: Enzyme kinetics of CytA (formation of deglycosylation products, anaerobic); assay type: biochemical, Streptomyces sp. SCSIO 1666; details: substrate of CytA; 0.5 μM CytA, 20 μM NADH, anaerobic
Method: Enzymatic reactions were carried out under anaerobic conditions in an anaerobic workstation (Don Whitley Scientific A45) containing a gas phase of N2/H2/CO2 (80:10: 10%, by vol.). ^1H, ^13C, and 2D (COSY, HMQC, HMBC and NOESY) NMR spectra were recorded at 25 °C with an Avance 700 MHz spectrometer instruments (Bruker). High-resolution mass spectra were obtained with a Maxis quadrupole-time-of-flight mass spectrometer (Bruker).
To validate the in vitro biochemical activities of CytA, we overexpressed and purified this enzyme as a soluble N-terminally His6-tagged protein from E. coli (Fig. 2a). Tris-Cl buffer was made O2 free by boiling, followed by cooling under N2 flow; NADH stock solution (dissolved in Tris-Cl), substrate stock solution (dissolved in DMSO), and enzyme solution (dissolved in Tris-Cl supplemented with 10% glycerin) were subjected to O2 eliminating process in the anaerobic workstations for at least two cycles (40 min for one cycle). CytA enzymatic activity was tested in 50 μL volume containing 50 mM Tris-Cl (pH 8.0), 25 μM substrate, 0.5 μM CytA, and 20 μM NADH, at 37 °C for 30 min. The reaction was quenched with the addition to 2 volumes MeOH. After centrifugation to remove protein, supernatants were analyzed with Agilent HPLC equipment using a Phenomenex Prodigy ODS column S5 (150 × 4.60 mm, 5 μ) and UV detection at 254 and 500 nm. Samples were eluted with a gradient elution of phase A containing 0.1% TFA in ddH2O and phase B containing 100% acetonitrile, at a flow rate of 1 mL/min.
Kinetic analyses of CytA with putative substrates 6–10, daunorubicin, doxorubicin, idarubicin, epirubicin and pirarubicin, involved a reaction volume of 20 μL consisting of 50 mM Tris-Cl (pH 8.0), 0.5 μM CytA, 20 μM NADH, […]
All assays were performed in triplicate and Km and Vmax values were calculated on the basis of curve fitting to the Michaelis-Menten equation: v = Vmax *[S]/(Km + [S]) (Supplementary Fig. 7).
For kinetics of CytA, Origin 9.0 (OriginLab Co.) was used to analyze on the basis of curve fitting to the Michaelis-Menten equation. Experiments were performed in triplicate independently. For antibacterial activity, experiments were performed in triplicate using 96-well plates.

[2] = tested on: B. thuringiensis BT01; experiment: Antibacterial activity, broth dilution MIC; assay type: cell-based; details: Bacillus thuringiensis
Method: (§1) The antibacterial activities of compounds 1–13 were assessed using twofold serial dilutions of antibacterial agents in MH broth, according to previously reported standard methods provided by Clinical and Laboratory Standards Institute (CLSI)[30]. These compounds were tested for their antibacterial activities against Bacillus subtilis BS01, Staphyloccocus aureus ATCC 29213, Staphyloccocus aureus 745524, Bacillus thuringiensis BT01, and Enterococcus faecalis ATCC 29212 using a broth dilution method.

[3] = tested on: E. faecalis ATCC 29212; experiment: Antibacterial activity, broth dilution MIC; assay type: cell-based; details: Enterococcus faecalis
Method: as §1

[4] = tested on: Staphylococcus aureus ATCC 29213; experiment: Antibacterial activity, broth dilution MIC; assay type: cell-based
Method: as §1

[5] = tested on: B. subtilis BS01; experiment: Antibacterial activity, broth dilution MIC; assay type: cell-based; details: Bacillus subtilis
Method: as §1

[6] = tested on: Staphylococcus aureus 745524; experiment: Antibacterial activity, broth dilution MIC; assay type: cell-based
Method: as §1

[7] = tested on: MCF-7 human breast adenocarcinoma cell line; experiment: Cytotoxic activity, MTT method; assay type: cell-based; details: MCF7, read-out: Cytotoxic activities IC50, MCF-7
Source text: (§2) All data were obtained in triplicate and are presented as means.

[8] = tested on: A549 human lung cancer cell line; experiment: Cytotoxic activity, MTT method; assay type: cell-based; details: A549, read-out: Cytotoxic activities IC50, A549
Source text: as §2

[9] = Cytotoxic activity, MTT method; assay type: cell-based; details: human
Source text: as §2

[10] = tested on: MDA-MB-468 human triple negative breast adenocarcinoma cell line; experiment: Cytotoxic activity, MTT method; assay type: cell-based; details: MDA-MB-468, read-out: Cytotoxic activities IC50, MDA-MB-468
Source text: as §2

[11] = tested on: RKO human colorectal carcinoma cell line; experiment: Cytotoxic activity, MTT method; assay type: cell-based; details: read-out: Cytotoxic activities IC50, RKO
Source text: as §2

[12] = tested on: HepG2 human hepatocellular carcinoma cell line; experiment: Cytotoxic activity, MTT method; assay type: cell-based; details: HepG2, read-out: Cytotoxic activities IC50, HepG2
Source text: as §2

[13] = tested on: HeLa human cervical carcinoma cell line; experiment: Cytotoxic activity, MTT method; assay type: cell-based; details: read-out: Cytotoxic activities IC50, HeLa
Source text: as §2

[14] = tested on: MDA-MB-231 human triple negative breast adenocarcinoma cell line; experiment: Cytotoxic activity, MTT method; assay type: cell-based; details: MDA-MB-231, read-out: Cytotoxic activities IC50, MDA-MB-231
Source text: as §2

[15] = B. thuringiensis BT01, triplicate, read-out: MIC values, BT
[16] = ATCC29212, E. faecalis ATCC 29212, triplicate, read-out: MIC values, EF
[17] = ATCC29213, Staphylococcus aureus ATCC 29213, triplicate, read-out: MIC values, SA1
[18] = B. subtilis BS01, triplicate, read-out: MIC values, BS
[19] = Staphylococcus aureus 745524, triplicate, read-out: MIC values, SA2
[20] = Huvec-12 normal cell line, read-out: Cytotoxic activities IC50, Huvec-12
[21] = L02 normal cell line, read-out: Cytotoxic activities IC50, L02
[22] = ATCC29212, read-out: MIC values, EF
[23] = Staphylococcus aureus, ATCC29213, read-out: MIC values, SA1
[24] = Staphylococcus aureus, 745524, read-out: MIC values, SA2

Compound	Km [1]	kcat [1]	MIC [2, 15]	MIC [3, 16]	MIC [4, 17]	MIC [5, 18]	MIC [6, 19]	IC50 [7]	IC50 [8]	IC50 [9, 20]	IC50 [9, 21]	IC50 [10]	IC50 [11]	IC50 [12]	IC50 [13]	IC50 [14]	further results
CC(=O)[C@]1(O)Cc2c(O)c3c(c(O)c2[C@@H](O[C@H]2C[C@H](N)[C@H](O)[C@H](C)O2)C1)C(=O)c1ccccc1C3=O [Compound 24, idarubicin, reference compound]	28.5 µM	0.00733 s⁻¹	–	–	–	–	–	–	–	–	–	–	–	–	–	–	–
CC[C@]1(O)Cc2c(O)c3c(c(O)c2[C@@H](O[C@H]2C[C@H](N(C)C)[C@H](O)[C@H](C)O2)C1)C(=O)c1c(O)cccc1C3=O [Compound 8, 10-decarbomethoxy-ε-rhodomycin]	12.7 µM	0.00283 s⁻¹	8 µg/mL (≈ 15.2 µM)	4 µg/mL (≈ 7.58 µM)	4 µg/mL (≈ 7.58 µM)	8 µg/mL (≈ 15.2 µM)	8 µg/mL (≈ 15.2 µM)	21.1 µM	6.24 µM	6.92 µM	19.8 µM	16.8 µM	3.28 µM	1.99 µM	1.31 µM	7.65 µM	–
CC[C@@]1(O)CCc2c(O)c3c(c(O)c2[C@H]1O)C(=O)c1cccc(O)c1C3=O [Compound 13]	–	–	> 32 µg/mL	> 32 µg/mL	> 32 µg/mL	> 32 µg/mL	> 32 µg/mL	–	–	–	–	–	–	–	–	–	–
CC[C@@]1(O[C@H]2C[C@H](N(C)C)[C@H](O)[C@H](C)O2)CCc2c(O)c3c(c(O)c2[C@H]1O[C@H]1C[C@H](N(C)C)[C@H](O[C@H]2C[C@H](O)[C@H](O[C@H]4CC[C@H](O)[C@H](C)O4)[C@H](C)O2)[C@H](C)O1)C(=O)c1cccc(O)c1C3=O [Compound 2, cytorhodin Y]	–	–	4 µg/mL (≈ 4.31 µM)	4 µg/mL (≈ 4.31 µM)	2 µg/mL (≈ 2.15 µM)	1 µg/mL (≈ 1.08 µM)	1 µg/mL (≈ 1.08 µM)	9.89 µM	7.25 µM	4.71 µM	4.46 µM	16.4 µM	11.8 µM	6.17 µM	3.25 µM	17.5 µM	–
COc1cccc2c1C(=O)c1c(O)c3c(c(O)c1C2=O)C[C@@](O)(C(=O)CO)C[C@@H]3O[C@H]1C[C@H](N)[C@H](O[C@@H]2CCCCO2)[C@H](C)O1 [Compound 26, pirarubicin, reference compound]	49.3 µM	0.0123 s⁻¹	–	–	–	–	–	–	–	–	–	–	–	–	–	–	–
CC[C@@]1(O)CCc2c(O)c3c(c(O)c2[C@H]1O[C@H]1C[C@H](N(C)C)[C@H](O)[C@H](C)O1)C(=O)c1cccc(O)c1C3=O [Compound 5, iremycin]	–	–	–	–	–	–	–	10.7 µM	11.8 µM	13.5 µM	6.93 µM	29.3 µM	15.2 µM	10.2 µM	9.99 µM	20.3 µM	MIC ([2]; BT01, read-out: MIC values, BT): 16 µg/mL (≈ 30.3 µM); MIC [3, 22]: 8 µg/mL (≈ 15.2 µM); MIC [4, 23]: 8 µg/mL (≈ 15.2 µM); MIC ([5]; BS01, read-out: MIC values, BS): 8 µg/mL (≈ 15.2 µM); MIC [6, 24]: 8 µg/mL (≈ 15.2 µM)
CC[C@@]1(O)CCc2c(O)c3c(c(O)c2[C@H]1O[C@H]1C[C@H](N(C)C)[C@H](O[C@H]2CC[C@H](O[C@H]4CC[C@H](O)[C@H](C)O4)[C@H](C)O2)[C@H](C)O1)C(=O)c1cccc(O)c1C3=O [Compound 3, cosmomycin A]	–	–	0.25 µg/mL (≈ 0.331 µM)	0.06 µg/mL (≈ 0.0794 µM)	0.25 µg/mL (≈ 0.331 µM)	0.5 µg/mL (≈ 0.661 µM)	0.125 µg/mL (≈ 0.165 µM)	0.82 µM	0.032 µM	0.31 µM	0.42 µM	0.81 µM	0.083 µM	0.023 µM	0.15 µM	1.36 µM	–
COc1cccc2c1C(=O)c1c(O)c3c(c(O)c1C2=O)C[C@@](O)(C(=O)CO)C[C@@H]3O[C@H]1C[C@H](N)[C@@H](O)[C@H](C)O1 [Compound 25, epirubicin, reference compound]	38.6 µM	0.00883 s⁻¹	–	–	–	–	–	–	–	–	–	–	–	–	–	–	–
COc1cccc2c1C(=O)c1c(O)c3c(c(O)c1C2=O)C[C@@](O)(C(=O)CO)C[C@@H]3O[C@H]1C[C@H](N)[C@H](O)[C@H](C)O1 [Compound 23, doxorubicin, reference compound]	31 µM	0.0102 s⁻¹	–	–	–	–	–	0.9 µM	2.31 µM	–	–	2.11 µM	1.45 µM	0.41 µM	0.83 µM	16.9 µM	IC50 ([9]; Huvec-12 normal umbilical vein endothelial cells, Huvec-12 normal cell line, read-out: Cytotoxic activities IC50, Huvec-12): 6.31 µM; IC50 ([9]; L02 normal hepatic cells, L02 normal cell line, read-out: Cytotoxic activities IC50, L02): 7.67 µM
CC[C@@]1(O)CCc2c(O)c3c(c(O)c2C1)C(=O)c1cccc(O)c1C3=O [Compound 12]	–	–	> 32 µg/mL	> 32 µg/mL	> 32 µg/mL	> 32 µg/mL	> 32 µg/mL	–	–	–	–	–	–	–	–	–	–
CC1(C)S[C@@H]2[C@H](NC(=O)[C@H](N)c3ccccc3)C(=O)N2[C@H]1C(=O)O [Amp, Ampicillin, reference compound]	–	–	4 µg/mL (≈ 11.4 µM)	2 µg/mL (≈ 5.72 µM)	4 µg/mL (≈ 11.4 µM)	4 µg/mL (≈ 11.4 µM)	8 µg/mL (≈ 22.9 µM)	–	–	–	–	–	–	–	–	–	–
CN[C@H](CC(C)C)C(=O)N[C@H]1C(=O)N[C@@H](CC(N)=O)C(=O)N[C@H]2C(=O)N[C@H]3C(=O)N[C@H](C(=O)N[C@H](C(=O)O)c4cc(O)cc(O)c4-c4cc3ccc4O)[C@H](O)c3ccc(c(Cl)c3)Oc3cc2cc(c3O[C@@H]2O[C@H](CO)[C@@H](O)[C@H](O)[C@H]2O[C@H]2C[C@](C)(N)[C@H](O)[C@H](C)O2)Oc2ccc(cc2Cl)[C@H]1O [Van, Vancomycin, reference compound]	–	–	–	–	–	–	–	–	–	–	–	–	–	–	–	–	MIC ([2]; BT01, read-out: MIC values, BT): 0.5 µg/mL (≈ 0.345 µM); MIC [3, 22]: 0.25 µg/mL (≈ 0.173 µM); MIC [4, 23]: 0.5 µg/mL (≈ 0.345 µM); MIC ([5]; BS01, read-out: MIC values, BS): 0.5 µg/mL (≈ 0.345 µM); MIC [6, 24]: 1 µg/mL (≈ 0.69 µM)
CC[C@@]1(O[C@H]2C[C@H](N(C)C)[C@H](O)[C@H](C)O2)CCc2c(O)c3c(c(O)c2[C@H]1O[C@H]1C[C@H](N(C)C)[C@H](O[C@H]2CC[C@H](O[C@H]4CC[C@H](O)[C@H](C)O4)[C@H](C)O2)[C@H](C)O1)C(=O)c1cccc(O)c1C3=O [Compound 1, cytorhodin X]	–	–	–	–	–	–	–	12.7 µM	3.4 µM	4.23 µM	3.5 µM	21.3 µM	11.2 µM	3.04 µM	2.04 µM	18.7 µM	MIC ([2]; BT01, read-out: MIC values, BT): 4 µg/mL (≈ 4.38 µM); MIC [3, 22]: 2 µg/mL (≈ 2.19 µM); MIC [4, 23]: 2 µg/mL (≈ 2.19 µM); MIC ([5]; BS01, read-out: MIC values, BS): 2 µg/mL (≈ 2.19 µM); MIC [6, 24]: 2 µg/mL (≈ 2.19 µM)
COc1cccc2c1C(=O)c1c(O)c3c(c(O)c1C2=O)C[C@@](O)(C(C)=O)C[C@@H]3O[C@H]1C[C@H](N)[C@H](O)[C@H](C)O1 [Compound 22, daunorubicin, reference compound]	36.3 µM	0.00967 s⁻¹	–	–	–	–	–	–	–	–	–	–	–	–	–	–	–
